Reference: patent US20030096379A1, “Method for producing tryptamine derivatives” (priority 2001, published 2003)
Marks after values point to notes of the source that are not given here.

Experiments:
tryptophanase (TnA) = target: T1, tryptophanase (TnA) (Escherichia coli, UniProt P0A853); assay type: biochemical, E. coli; parameters: key: +: a clear ninhydrin-positive spot at the Rf of standard tryptophan derivatives after 16-65 h; (+): a weak spot in the product region; −: no product observed; NR: experiment not run; settings: indole derivative + L-serine + PLP, 37° C., 16-65 h, ninhydrin
T1 construct: made in house; host or cells: E. coli LMG194 (pBAD) or BL-21 (pET)
T1 sequence (P0A853 whole entry): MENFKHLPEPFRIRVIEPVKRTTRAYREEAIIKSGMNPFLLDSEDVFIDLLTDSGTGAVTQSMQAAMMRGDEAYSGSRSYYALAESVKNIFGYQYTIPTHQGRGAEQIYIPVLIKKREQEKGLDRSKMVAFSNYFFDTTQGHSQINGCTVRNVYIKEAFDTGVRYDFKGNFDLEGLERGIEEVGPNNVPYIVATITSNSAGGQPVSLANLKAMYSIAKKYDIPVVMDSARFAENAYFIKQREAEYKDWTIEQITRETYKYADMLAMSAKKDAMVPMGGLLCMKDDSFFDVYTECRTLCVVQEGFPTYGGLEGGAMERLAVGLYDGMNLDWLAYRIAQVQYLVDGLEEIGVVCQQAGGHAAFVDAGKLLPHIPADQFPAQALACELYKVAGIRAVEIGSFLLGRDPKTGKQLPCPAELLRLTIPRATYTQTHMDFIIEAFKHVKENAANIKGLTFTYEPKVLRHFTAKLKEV
Method: (§1) A mixture containing 2 μmole of the indole derivative, 0.05 μmole of PLP and 50 μmol of L-serine in 40 mM KPi buffer in 8% v/v ethanol water, pH 7.5, was warmed to 37° C., then enzyme solution was added to give a final volume of 1 mL. Aliquots (100 μL) were quenched at intervals of 2, 6, and 24 hours or more in microcentrifuge capsules containing 25 μL of 6 M HCl. The quenched samples were evaporated in a Savant Speed-vac. The residues were resuspended in methanol/water (1:1, 50 μL) and analyzed by TLC on Silica gel GF254 plates alongside tryptophan and tryptamine standards, eluting with CH2Cl2/EtOH/H2O/HOAc 77:20:2:1. Products were visualized first by using short-wave UV light, then with ninhydrin spray reagent (1/1/98 w/v/v ninhydrin/HOAc/EtOH) followed by heating.
(§2) Substituted indoles were incubated with L-serine, PLP and enzyme (TrpBA or TnA) prior to TLC analysis as generally described in Example 6. Serine, which can be used instead of pyruvate and ammonia for tryptophan synthesis with TnA, was employed as the 3-carbon acid because pyruvate tended to obscure the tryptophan product spots when plates were visualized with ninhydrin. TnA-catalyzed formation of tryptophan was also faster when serine was the 3-carbon donor. Reaction rates for several substrates were also estimated by HPLC.
(§3) In Table 4, “+” indicates a clear ninhydrin-positive spot at the Rf of standard tryptophan derivatives after 16-65 h; “(+)” indicates a weak spot in the product region; “−” means no product observed, “NR” means experiment not run. ESMS=electrospray mass spectrometry. Unless otherwise indicated, the mass value given represents the singly-protonated molecular ion (M+1).

[1] = target: T2, E. coli DH5α tryptophan synthase (TrpBA) (Escherichia coli, UniProt P0A879); assay type: biochemical; parameters: key: +: a clear ninhydrin-positive spot at the Rf of standard tryptophan derivatives after 16-65 h; (+): a weak spot in the product region; −: no product observed; NR: experiment not run; settings: indole derivative + L-serine + PLP, 37° C., 16-65 h, ninhydrin
T2 construct: made in house; host or cells: E. coli LMG194 (pBAD) or BL-21 (pET)
T2 sequence (P0A879 whole entry): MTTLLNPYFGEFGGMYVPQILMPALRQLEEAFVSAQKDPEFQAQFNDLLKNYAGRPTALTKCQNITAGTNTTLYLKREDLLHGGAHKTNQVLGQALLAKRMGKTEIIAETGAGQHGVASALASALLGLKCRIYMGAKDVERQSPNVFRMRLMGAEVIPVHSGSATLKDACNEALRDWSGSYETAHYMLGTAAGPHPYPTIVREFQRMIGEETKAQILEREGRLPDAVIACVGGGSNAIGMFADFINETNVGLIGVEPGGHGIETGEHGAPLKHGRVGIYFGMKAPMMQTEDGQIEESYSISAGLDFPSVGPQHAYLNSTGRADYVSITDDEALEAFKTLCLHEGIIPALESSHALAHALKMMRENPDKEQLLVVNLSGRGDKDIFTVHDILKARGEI
T2 sequence (P0A877 whole entry, further chain): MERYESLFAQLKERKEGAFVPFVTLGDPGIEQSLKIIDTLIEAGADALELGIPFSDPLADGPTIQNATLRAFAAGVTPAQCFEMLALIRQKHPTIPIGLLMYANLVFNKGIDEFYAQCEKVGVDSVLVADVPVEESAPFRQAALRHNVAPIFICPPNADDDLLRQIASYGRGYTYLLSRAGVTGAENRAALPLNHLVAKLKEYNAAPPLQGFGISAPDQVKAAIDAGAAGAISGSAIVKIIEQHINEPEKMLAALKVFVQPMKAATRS
Method: as §1, §2, §3

TrpBA = target: T3, TrpBA (Escherichia coli, UniProt P0A879); assay: Relative rates of tryptophan derivative synthesis by HPLC, TrpBA; assay type: biochemical, E. coli; settings: initial rate estimated by HPLC, indole = 100%, L-serine
T3 construct: made in house; host or cells: E. coli LMG194 (pBAD) or BL-21 (pET)
T3 sequence (P0A879 whole entry): as the sequence (P0A879 whole entry) above
T3 sequence (P0A877 whole entry, further chain): as the sequence (P0A877 whole entry, further chain) above
Method: Reaction mixtures were prepared as in Example 6 and were incubated at 37° C. Aliquots (100 μL) were removed and quenched by addition of to 300 μL of 0.5 M sodium citrate, pH 3.0 in 10% v/v acetonitrile/water in 2 ml microcentrifuge tubes. Following centrifugation for 10 min at 13,000×g, the supernatants were passed through 0.45μ membrane filters prior to HPLC analysis of 20 μL of filtrate.
TnA reactions were run with L-serine as the 3-carbon substrate.

TrpBA and TDC1 = assay: Coupled enzyme synthesis monitored by HPLC; assay type: biochemical; settings: L-serine, PLP, pH 8.5 phosphate buffer, 37° C.
Method: To a solution containing L-serine (25 μmol), pyridoxal phosphate (0.05 μmol) and TrpBA (0.02 to 1.5 units, depending on the substrate), TDC1 (0.2 mL 0.6 units) and KPi buffer (0.05 mmol, pH 7.5) in a volume of 0.8 mL were added […] of 5 mM indole derivative in 20% v/v ethanol/water. The mixture was incubated at 37° C. and aliquots were quenched and analyzed as described for Example 8. In cases where tryptamine and/or tryptophan standards were not available, peaks were collected for mass spectral analysis. Electrospray mass spectral analyses were performed.
Mixtures containing indole, L-serine, PLP and TDC1 were incubated in pH 8.5 phosphate buffer, analyzing aliquots by HPLC, as described in Example 12.
The procedure used in Example 24 was carried out by substituting indole with 2-methylindole, 4-hydroxymethylindole, 5-methoxy-, 5-hydroxymethyl-, 5-methoxycarbonyl, and 5,6-dimethoxyindole.

[2] = target: T4, pig kidney aromatic amino acid decarboxylase (pkAAAD) (Sus scrofa, UniProt P80041); assay: Substrate screen for tryptophan decarboxylation, pkAAAD; assay type: biochemical; parameters: key: +: a clear ninhydrin-positive spot at the Rf of standard tryptophan derivatives after 16-65 h; (+): a weak spot in the product region; −: no product observed; NR: experiment not run; settings: tryptophan derivative, PLP, pH 7.5, 37° C.
T4 construct: Frozen tissue was partially thawed in lysis buffer, then it was extracted and partially purified; from tissue; host or cells: pig kidney
T4 sequence (P80041 1-486): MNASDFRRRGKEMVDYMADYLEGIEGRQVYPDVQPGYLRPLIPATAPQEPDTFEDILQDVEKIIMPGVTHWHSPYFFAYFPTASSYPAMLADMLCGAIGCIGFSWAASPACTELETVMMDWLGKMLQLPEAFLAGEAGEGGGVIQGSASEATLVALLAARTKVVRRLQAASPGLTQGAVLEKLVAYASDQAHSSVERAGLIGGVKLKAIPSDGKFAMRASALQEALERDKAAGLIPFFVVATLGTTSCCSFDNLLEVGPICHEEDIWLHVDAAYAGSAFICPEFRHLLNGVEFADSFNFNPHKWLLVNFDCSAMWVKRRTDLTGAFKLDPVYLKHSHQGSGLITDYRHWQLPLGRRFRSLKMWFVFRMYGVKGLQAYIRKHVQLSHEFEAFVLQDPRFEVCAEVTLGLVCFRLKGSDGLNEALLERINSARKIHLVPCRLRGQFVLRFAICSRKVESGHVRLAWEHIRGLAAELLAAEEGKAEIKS

[3] = target: T5, tryptophan decarboxylase TDC2 (Camptotheca acuminata, UniProt P93083); assay: Substrate screen for tryptophan decarboxylation, TDC2; assay type: biochemical, C. accuminata; parameters: key: +: a clear ninhydrin-positive spot at the Rf of standard tryptophan derivatives after 16-65 h; (+): a weak spot in the product region; −: no product observed; NR: experiment not run; settings: tryptophan derivative, PLP, pH 7.5, 37° C.
T5 construct: made in house; host or cells: E. coli DH5α (pKK233 plasmid from C. Nessler)
T5 sequence (P93083 1-498): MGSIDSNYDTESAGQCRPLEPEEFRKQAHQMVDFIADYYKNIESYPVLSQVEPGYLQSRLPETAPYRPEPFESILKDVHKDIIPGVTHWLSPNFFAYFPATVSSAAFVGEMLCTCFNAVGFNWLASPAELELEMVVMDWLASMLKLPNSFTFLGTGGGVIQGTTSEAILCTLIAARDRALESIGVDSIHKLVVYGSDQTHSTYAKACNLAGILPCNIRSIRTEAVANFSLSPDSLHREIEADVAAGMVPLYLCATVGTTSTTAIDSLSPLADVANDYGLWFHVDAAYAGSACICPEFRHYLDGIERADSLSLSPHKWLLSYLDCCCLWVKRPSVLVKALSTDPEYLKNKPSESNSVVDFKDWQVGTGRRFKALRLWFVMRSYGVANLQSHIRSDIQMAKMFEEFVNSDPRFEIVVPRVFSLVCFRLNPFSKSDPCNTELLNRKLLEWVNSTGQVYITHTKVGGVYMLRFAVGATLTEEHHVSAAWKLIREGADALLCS
Method: (§4) A mixture containing 1 μmole of the tryptophan derivative, 0.05 μmole of PLP and 50 μmol of L-serine in 40 mM pH 7.5 KPi buffer was warmed to 37° C., then enzyme solution was added to give a final volume of 1 mL. Aliquots (100 HL) were quenched at intervals and were evaporated in a Savant Speed-vac as in Example 6. For TLC analysis, CH2Cl2/EtOH/H2O/HOAc 49:49:1:1 was used as the solvent. The plates were visualized with short-wave UV light and ninhydrin as in Example 6.
(§5) HPLC techniques were used to monitor the decarboxylation of substituted tryptophans. Mass spectral analysis of the collected HPLC peaks was used to confirm the identity of several tryptamine derivatives, as shown in Table 5.

[4] = target: T6, synAAAD (synthetic gene based on pkAAAD protein sequence) (Sus scrofa, UniProt P80041); assay: Substrate screen for tryptophan decarboxylation, SynAAAD; assay type: biochemical; parameters: key: +: a clear ninhydrin-positive spot at the Rf of standard tryptophan derivatives after 16-65 h; (+): a weak spot in the product region; −: no product observed; NR: experiment not run; settings: tryptophan derivative, PLP, pH 7.5, 37° C.
T6 construct: made in house; host or cells: E. coli (pET-15 vector)
T6 sequence (P80041 1-486): T4 sequence (P80041 1-486)
Method: as §4, §5

[5] = target: T7, tryptophan decarboxylase TDC1 (Camptotheca acuminata, UniProt P93082); assay: Substrate screen for tryptophan decarboxylation, TDC1; assay type: biochemical, C. accuminata; parameters: key: +: a clear ninhydrin-positive spot at the Rf of standard tryptophan derivatives after 16-65 h; (+): a weak spot in the product region; −: no product observed; NR: experiment not run; settings: tryptophan derivative, PLP, pH 7.5, 37° C.
T7 construct: made in house; host or cells: E. coli DH5α (pKK233 plasmid from C. Nessler)
T7 sequence (P93082 1-502): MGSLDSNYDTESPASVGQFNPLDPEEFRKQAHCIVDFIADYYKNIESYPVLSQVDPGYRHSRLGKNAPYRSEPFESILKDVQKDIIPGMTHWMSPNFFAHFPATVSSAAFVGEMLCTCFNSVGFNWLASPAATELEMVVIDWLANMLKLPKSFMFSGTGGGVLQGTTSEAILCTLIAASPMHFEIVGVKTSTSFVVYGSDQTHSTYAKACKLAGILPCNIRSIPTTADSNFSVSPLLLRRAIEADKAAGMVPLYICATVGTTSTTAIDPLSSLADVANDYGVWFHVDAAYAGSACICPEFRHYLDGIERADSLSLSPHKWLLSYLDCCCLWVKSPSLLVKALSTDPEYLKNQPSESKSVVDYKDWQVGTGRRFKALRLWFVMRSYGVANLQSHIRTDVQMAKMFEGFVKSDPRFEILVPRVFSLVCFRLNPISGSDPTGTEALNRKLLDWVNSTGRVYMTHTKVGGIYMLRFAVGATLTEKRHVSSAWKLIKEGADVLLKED
Method: as §4, §5

Molecule	TnA (tryptophan product spot, TLC analysis) (tryptophanase (TnA))	TrpBA (tryptophan product spot, TLC analysis) [1]	Relative rate (TrpBA) (TrpBA)	formation of tryptophan derivative and tryptamine (HPLC peaks) (TrpBA and TDC1)	pkAAAD (decarboxylation substrate screen) [2]	TDC2 (decarboxylation substrate screen) [3]	SynAAAD (decarboxylation substrate screen) [4]	TDC1 (decarboxylation substrate screen) [5]
COc1ccc2[nH]ccc2c1 [5-methoxy-]	+	+	19.0%	a second peak representing formation of tryptamine				
Cc1ccc2[nH]ccc2c1 [5CH3]			0.55%					
Cc1cc2ccccc2[nH]1 [2-methyl-, 2-methylindole]	+	−	20.6* %	a second peak representing formation of tryptamine				
5-(Methoxycarbonylamino)indole [5-(methoxycarbonyl)amino-]				a second peak representing formation of tryptamine				
N[C@@H](Cc1c[nH]c2cccc(CO)c12)C(=O)O [L-4-(hydroxymethyl)-trp, 4-(Hydroxymethyl)-L-tryptophan]					(+)	+	+	+
NC(Cc1c[nH]c2cc(F)ccc12)C(=O)O (racemic) [DL-6-fluoro-trp]					−	−	−	−
